{
  "source": "ChEMBL document CHEMBL4354835",
  "about": "“Selective Blockade of Neuronal BK (α + β4) Channels Preventing Epileptic Seizure” (J Med Chem, 2020)",
  "key": {"Rattus norvegicus [1]": {"organism": "Rattus norvegicus", "test": "(§1) Neuroprotective activity in PTZ-induced epileptic seizure Sprague-Dawley rat model assessed as inhibition of hippocampal destruction by measuring increase in Nissl stained pyramidal neurons in contralateral hippocampus CA3 region compound infused into hippocampal region and 10 mins later injected with PTZ and measured after 3 days by Nissl staining based microscopic analysis", "assay_type": "functional, organism-based"}, "Rattus norvegicus [2]": {"organism": "Rattus norvegicus", "test": "Anticonvulsant activity against PTZ-induced epileptic seizure Sprague-Dawley rat model assessed as latency time of seizures compound infused into hippocampal region and 10 mins later injected with PTZ and measured for 2 hrs post PTZ-stimulation (reference value: 108.5 +/- 8.63 sec)", "assay_type": "functional"}, "[3]": {"target": "Calcium-activated potassium channel subunit beta-4 (Homo sapiens, UniProt Q86W47, E104K)", "sequence (Q86W47 whole entry E104K)": "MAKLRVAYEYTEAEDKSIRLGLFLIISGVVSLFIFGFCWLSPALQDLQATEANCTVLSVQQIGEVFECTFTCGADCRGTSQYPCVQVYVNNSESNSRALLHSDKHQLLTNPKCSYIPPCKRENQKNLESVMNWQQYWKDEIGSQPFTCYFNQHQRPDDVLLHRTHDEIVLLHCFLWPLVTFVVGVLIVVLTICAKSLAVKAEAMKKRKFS", "test": "Binding affinity to NT-495 fluorophore reagent labelled human BK beta4 E104K mutant incubated for 30 mins by microscale thermophoresis assay"}, "Rattus norvegicus [4]": {"organism": "Rattus norvegicus", "test": "(§2) Inhibition of C-Fos expression in PTZ-induced epileptic seizures Sprague-Dawley rat model assessed as inhibition of FLI-positive pyramidal neurons in CA1 region of ipsilateral hippocampus at 10 uM compound infused into hippocampal region and 10 mins later injected with PTZ and measured after 2 hrs by immunohistochemistry", "assay_type": "functional, organism-based"}, "KCNMA1/KCNMB4": {"target": "KCNMA1/KCNMB4 (Homo sapiens, UniProt Q12791+Q86W47)", "test": "Inhibition of human BK alpha/beta4 channel expressed in HEK293T cells assessed as K+ outward current fraction at 10 uM at -80 mV holding potential by whole cell patch clamp method relative to control", "assay_type": "cell-based"}, "Rattus norvegicus [5]": {"organism": "Rattus norvegicus", "test": "Effect on neuronal network in PTZ-induced epileptic seizures Sprague-Dawley rat model assessed as lowered PSD at delta wave band compound infused into hippocampal region and 10 mins later injected with PTZ and measured after 2 hrs by power spectral density analysis", "assay_type": "functional, organism-based"}, "Rattus norvegicus [6]": {"organism": "Rattus norvegicus", "test": "Effect on neuronal network in PTZ-induced epileptic seizures Sprague-Dawley rat model assessed as lowered PSD at theta wave band compound infused into hippocampal region and 10 mins later injected with PTZ and measured after 2 hrs by power spectral density analysis", "assay_type": "functional, organism-based"}, "[7]": {"target": "T1, Calcium-activated potassium channel subunit beta-4 (Homo sapiens, UniProt Q86W47)", "T1 sequence (Q86W47 whole entry)": "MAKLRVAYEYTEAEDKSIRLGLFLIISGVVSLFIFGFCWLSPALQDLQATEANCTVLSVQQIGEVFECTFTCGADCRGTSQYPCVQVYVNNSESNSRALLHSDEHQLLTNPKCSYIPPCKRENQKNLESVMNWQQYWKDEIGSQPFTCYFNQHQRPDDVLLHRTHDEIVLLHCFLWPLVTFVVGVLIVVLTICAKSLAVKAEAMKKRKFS", "test": "Binding affinity to NT-495 fluorophore reagent labelled human BK beta4 (45 to 166 residues) incubated for 30 mins by microscale thermophoresis assay", "details": "read-out: Kd"}, "Homo sapiens [8]": {"organism": "Homo sapiens", "test": "Selectivity ratio of compound Kd for NT-495 fluorophore reagent labelled human BK beta4 E104K mutant to compound Kd for NT-495 fluorophore reagent labelled human BK beta4 (45 to 166 residues) by microscale thermophoresis assay"}, "Homo sapiens [9]": {"organism": "Homo sapiens", "test": "Inhibition of human BK alpha/human beta4 Q124A mutant expressed in HEK293T cells assessed as K+ fractional outward current at 10 uM at -80 holding potential by whole cell patch clamp technique relative to control", "assay_type": "cell-based"}, "[10]": {"target": "T2, Calcium-activated potassium channel subunit beta-4 (Homo sapiens) (UniProt Q86W47)", "T2 sequence (whole entry)": "T1 sequence (Q86W47 whole entry)", "test": "Binding affinity to 15N-labelled human BK beta4 (45 to 166 residues) at compound: protein mole ratio of 1:4 by 1H-15N HSQC NMR spectroscopy"}, "Rattus norvegicus [11]": {"organism": "Rattus norvegicus", "test": "as §1, with “granular” for “pyramidal”, “ipsilateral” for “contralateral”, “DG” for “CA3”", "assay_type": "functional, organism-based"}, "Rattus norvegicus [12]": {"organism": "Rattus norvegicus", "test": "as §2, with “granular” for “pyramidal”, “DG” for “CA1”", "assay_type": "functional, organism-based"}},
  "note": "The source made the active and inactive calls. No cut-off for these calls is given here.",
  "data": [
    {"smiles": "CC[C@H](C)[C@H](NC(=O)[C@H](CC(C)C)NC(=O)CNC(=O)[C@H](Cc1ccccc1)NC(=O)[C@H](CO)NC(=O)CN)C(=O)N[C@@H](CC(=O)O)C(=O)N[C@H](C(=O)N[C@@H](CCCCN)C(=O)N[C@H]1CSSC[C@@H]2NC(=O)[C@H](CCCCN)NC(=O)CNC(=O)[C@H](CCC(N)=O)NC(=O)CNC(=O)[C@H](CO)NC(=O)CNC(=O)[C@H]([C@@H](C)O)NC(=O)[C@H](C(C)C)NC(=O)[C@H](CCCCN)NC(=O)[C@H](CCCCN)NC(=O)[C@@H]3CSSC[C@@H](C(=O)N[C@@H](Cc4ccc(O)cc4)C(=O)O)N[C@@H](CCCNC(=N)N)C(=O)[C@H](CSSC[C@H](NC(=O)[C@H](CCC(=O)O)NC(=O)[C@H](CO)NC(=O)[C@H](CO)NC(=O)[C@H](C)NC(=O)[C@H](Cc4ccccc4)NC1=O)C(=O)N[C@@H](Cc1c[nH]c4ccccc14)C(=O)N[C@@H]([C@@H](C)O)C(=O)N[C@@H](C)C(=O)N3)N[C@@H](CCC(N)=O)C(=O)NC(=O)[C@H](CC(N)=O)NC(=O)[C@H](CC(N)=O)NC(=O)[C@H](CCC(N)=O)NC2=O)C(C)C", "values": [
      {"measurement": "Activity", "setting": "Rattus norvegicus [1]", "value": "Active"},
      {"measurement": "Time", "setting": "Rattus norvegicus [2]", "value": 378.5, "unit": "s"},
      {"measurement": "Kd", "setting": "[3]", "value": 782, "unit": "µM"},
      {"measurement": "inhibition", "setting": "Rattus norvegicus [4]", "value": "Active"},
      {"measurement": "Ratio", "setting": "KCNMA1/KCNMB4", "value": 0.33},
      {"measurement": "Activity", "setting": "Rattus norvegicus [5]", "value": "Active"},
      {"measurement": "Activity", "setting": "Rattus norvegicus [6]", "value": "Active"},
      {"measurement": "Kd", "setting": "[7]", "value": 511, "unit": "µM"},
      {"measurement": "Selectivity ratio", "setting": "Homo sapiens [8]", "value": 1.4},
      {"measurement": "Ratio", "setting": "Homo sapiens [9]", "value": 0.6},
      {"measurement": "Activity", "setting": "[10]", "value": "Active"},
      {"measurement": "Activity", "setting": "Rattus norvegicus [11]", "value": "Active"},
      {"measurement": "inhibition", "setting": "Rattus norvegicus [12]", "value": "Active"}
    ]}
  ]
}
